According to US6489316B2, “6-(spirocyclopropyl) penicillanic acid 4, 4-dioxides” (priority 2000, dated 2002):
Like-named read-outs stand apart in the source and are kept apart here.

Assays:
[1] = biological target: Class A(TEM-1) beta-lactamase (Escherichia coli, UniProt P62593); assay: beta-lactamase inhibition, spectrophotometric with nitrocefin; type: biochemical; conditions: for IC50: 10-minute preincubation of enzyme with inhibitor at 25° C., nitrocefin substrate; for inhibition of class A(TEM-1) enzymes, in words: summary of Table I
[2] = biological target: Class C(AmpC) beta-lactamase (UniProt P00811); assay: as above; type: biochemical; conditions: for IC50: 10-minute preincubation of enzyme with inhibitor at 25° C., nitrocefin substrate; for inhibition of class C(AmpC) enzymes, in words: summary of Table I
S. marcescens (AmpC) = assay: microbial assay, MIC in broth, antibiotic with inhibitor 1:1; type: cell-based; conditions: Serratia marcescens, serial two-fold dilutions
Protocol: (§1) Representative Example 9 was tested in a microbial assay in combination with the penicillin antibiotic Piperacillin. In these tests, minimum inhibitory concentration(MIC) are determined in broth using serial two-fold dilutions with a 1:1 ratio of Piperacillin to inhibitor(N. A. Kuck; N. V. Jacobs; P. J. Peterson; W. J. Weiss; and R. T. Testa, in “Antimicrobial Agents and Chemotherapy”, Vol. 33, 1989, pages 1964-1969).

E. coli 300 + (AmpC) = assay: as above; type: cell-based; conditions: for MIC: Escherichia coli, Table II, combinations 1:1 ratio antibiotic to inhibitor
Protocol: as §1

E. coli + (AmpC) = assay: as above; type: cell-based; conditions: Escherichia coli, serial two-fold dilutions
Protocol: as §1

[3] = system: P. aeroginosa (AmpC derepressed); assay: as above; type: cell-based; conditions: serial two-fold dilutions
Protocol: as §1

E. coli GC 6265 (TEM-1) = assay: as above; type: cell-based; conditions: for MIC: Escherichia coli, Table II, combinations 1:1 ratio antibiotic to inhibitor
Protocol: as §1

E. coli + (TEM-1) = assay: as above; type: cell-based; conditions: Table III, serial two-fold dilutions, combinations 1:1 ratio Piperacillin to inhibitor
Protocol: as §1

[4] = biological target: Class B(Imi-1) beta-lactamase (Enterobacter cloacae, UniProt Q46991); assay: beta-lactamase inhibition, spectrophotometric with nitrocefin; type: biochemical; conditions: 10-minute preincubation of enzyme with inhibitor at 25° C., nitrocefin substrate
[5] = Table II, combinations 1:1 ratio antibiotic to inhibitor
[6] = broth, serial two-fold dilutions
[7] = Table II, combinations 1:1 ratio antibiotic to inhibitor, read-out: MIC P. aeroginosa (AmpC derepressed)
[8] = Table III, combinations 1:1 ratio Piperacillin to inhibitor
[9] = Table III, broth, serial two-fold dilutions, combinations 1:1 ratio Piperacillin to inhibitor
[10] = summary of Table II, combined with piperacillin or cefotaxime

Chain of Class A(TEM-1) beta-lactamase (P62593 24-286 limits assumed): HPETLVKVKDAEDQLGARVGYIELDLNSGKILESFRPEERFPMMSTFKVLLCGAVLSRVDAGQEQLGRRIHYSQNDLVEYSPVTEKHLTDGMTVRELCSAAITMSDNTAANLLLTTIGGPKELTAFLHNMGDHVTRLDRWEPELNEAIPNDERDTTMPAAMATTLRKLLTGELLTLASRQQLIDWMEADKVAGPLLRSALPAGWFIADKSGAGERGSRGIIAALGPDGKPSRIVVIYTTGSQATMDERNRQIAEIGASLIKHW
Chain of Class B(Imi-1) beta-lactamase (Q46991 entry or part of it): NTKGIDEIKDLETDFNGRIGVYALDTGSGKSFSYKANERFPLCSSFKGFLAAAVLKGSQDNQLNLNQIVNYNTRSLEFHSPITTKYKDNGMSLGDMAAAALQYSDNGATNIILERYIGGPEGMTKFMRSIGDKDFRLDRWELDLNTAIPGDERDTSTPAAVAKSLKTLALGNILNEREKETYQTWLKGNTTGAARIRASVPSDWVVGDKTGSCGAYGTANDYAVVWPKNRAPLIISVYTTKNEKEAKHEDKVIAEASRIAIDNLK

CC(C)(C)[Si](C)(C)OC1C[C@@]12C(=O)N1[C@@H](C(=O)O)C(C)(C)S(=O)(=O)[C@@H]12 (single isomer, unassigned) [Example 8]
IC50 ([1]; IC50 Class A(TEM-1)): 17000 nM | IC50 [2]: 1900 nM

CC(C)(C)[Si](C)(C)OC1CC12C(=O)N1[C@@H](C(=O)O)C(C)(C)S(=O)(=O)[C@@H]12 (single isomer, unassigned) [Example 10]
IC50 ([1]; IC50 Class A(TEM-1)): 12000 nM | IC50 [2]: 343 nM | inhibition of class C(AmpC) enzymes, in words [2]: very potent inhibitors

CC1(C)C(C(=O)O)N2C(=O)C3(CC3OC3CCCCC3)C2S1(=O)=O (single isomer, unassigned) [Example 13]
IC50 ([1]; IC50 Class A(TEM-1)): 510 nM | inhibition of class A(TEM-1) enzymes, in words [1]: potent inhibitors | IC50 [2]: 37 nM | inhibition of class C(AmpC) enzymes, in words [2]: very potent inhibitors

CC1(C)C(C(=O)O)N2C(=O)C3(CC3OC3CCCCC3)C2S1(=O)=O (single isomer, unassigned) [Example 12]
IC50 ([1]; IC50 Class A(TEM-1)): 1700 nM | IC50 [2]: 32000 nM

CC1(C)C(C(=O)O)N2C(=O)C3(CC3OC3CCCCC3)C2S1(=O)=O (single isomer, unassigned) [Example 14]
IC50 ([1]; IC50 Class A(TEM-1)): 130000 nM | IC50 [2]: 3160 nM

CO/N=C(\C(=O)N[C@@H]1C(=O)N2C(C(=O)O)=C(COC(C)=O)CS[C@H]12)c1csc(N)n1 [Cefotaxime, cefotaxime]
MIC (S. marcescens (AmpC); [5]): 8 µg/mL | MIC (E. coli 300 + (AmpC); [6]): 16 µg/mL | MIC (E. coli + (AmpC); [5]): > 64 µg/mL | MIC [3, 7]: > 64 µg/mL | MIC (E. coli GC 6265 (TEM-1); [6]): 64 µg/mL

CC1(C)[C@H](C(=O)O)N2C(=O)C[C@H]2S1(=O)=O [Sulbactam, reference compound]
IC50 [2]: 65900 nM

CCN1CCN(C(=O)N[C@@H](C(=O)N[C@@H]2C(=O)N3[C@@H]2SC(C)(C)[C@@H]3C(=O)O)c2ccccc2)C(=O)C1=O [Piperacillin]
MIC (S. marcescens (AmpC); [5]): 32 µg/mL | MIC (S. marcescens (AmpC); [8]): 64 µg/mL | MIC (E. coli 300 + (AmpC); [6]): 32 µg/mL | MIC E. coli 300 + (AmpC) (E. coli 300 + (AmpC); [9]): 32 µg/mL | MIC (E. coli + (AmpC); [5]): > 64 µg/mL | MIC (E. coli + (AmpC); [8]): 32 µg/mL | MIC [3, 7]: > 64 µg/mL | MIC ([3]; Table III, combinations 1:1 ratio Piperacillin to inhibitor, read-out: MIC P. aeroginosa): > 64 µg/mL | MIC (E. coli GC 6265 (TEM-1); [6]): > 64 µg/mL | MIC E. coli GC 6265 (TEM-1) (E. coli GC 6265 (TEM-1); [9]): >64 µg/mL | MIC E. coli + (TEM-1) (E. coli + (TEM-1)): >64 µg/mL

CC(C)(C)[Si](C)(C)O[C@H]1C[C@]12C(=O)N1[C@@H](C(=O)[O-])C(C)(C)S(=O)(=O)[C@@H]12.[Na+] [Example 9, (1R,2S,5R)-2-[(tert-Butyldimethylsilyl)oxy]-3,3-dimethyl-7-oxospiro[cyclopropane-1,6-[4]thia[1]azabicyclo[3.2.0]-heptane]-2-carboxylic acid, Sodium Salt, 4,4-dioxide]
activity as a beta-lactamase inhibitor with E.coli 300+(AmpC), in words (E. coli 300 + (AmpC); [10]): very potent activity | activity as a beta-lactamase inhibitor with E.coli GC6265 (TEM-1), in words (E. coli GC 6265 (TEM-1); [10]): very potent activity | IC50 ([1]; read-out: IC50 Class A(TEM-1)): 650 nM | inhibition of class A(TEM-1) enzymes, in words [1]: potent inhibitors | IC50 [4]: 12000 nM | IC50 [2]: 21 nM | inhibition of class C(AmpC) enzymes, in words [2]: very potent inhibitors
